Results reported in paper PMC5218480 (PLoS ONE, 2017).

Test system: MV-4-11 cells
Assay: Gene expression microarray analysis (Affymetrix PrimeView) and GSEA
Assay type: cell-based, human
Set-up: RFU PODN (11730768_x_at) / Fold change /veh PODN (11730768_x_at) / RFU LINC00158 (11744669_a_at) / Fold change /veh LINC00158 (11744669_a_at) / RFU DUSP10 (11751237_a_at) / Fold change /veh DUSP10 (11751237_a_at) / RFU ID3 (11757404_x_at) / Fold change /veh ID3 (11757404_x_at) / RFU PLEKHG5 (11737974_s_at) / Fold change /veh PLEKHG5 (11737974_s_at) / RFU LRRC4B (11730491_at) / Fold change /veh LRRC4B (11730491_at) / RFU GIMAP4 (11747438_a_at) / Fold change /veh GIMAP4 (11747438_a_at) / RFU KRT8 (11758183_x_at) / Fold change /veh KRT8 (11758183_x_at) / RFU CNN1 (11734310_a_at) / Fold change /veh CNN1 (11734310_a_at) / RFU VPS37D (11726825_at) / Fold change /veh VPS37D (11726825_at) / RFU C10orf10 (11716522_x_at) / Fold change /veh C10orf10 (11716522_x_at) / RFU KIR2DL2 /// KIR2DL4 /// KIR2DL5A /// KIR2DL5B /// KIR2DS1 /// KIR2DS2 /// KIR2DS3 /// KIR2DS4 /// KIR3DL3 /// KIR3DL3 /// KIR3DS1 (11738374_at) / Fold change /veh KIR2DL2 /// KIR2DL4 /// KIR2DL5A /// KIR2DL5B /// KIR2DS1 /// KIR2DS2 /// KIR2DS3 /// KIR2DS4 /// KIR3DL3 /// KIR3DL3 /// KIR3DS1 (11738374_at) / RFU C1QL1 (11718748_at) / Fold change /veh C1QL1 (11718748_at) / RFU TMPRSS4 (11747572_a_at) / Fold change /veh TMPRSS4 (11747572_a_at) / RFU HAMP (11756126_x_at) / Fold change /veh HAMP (11756126_x_at) / RFU RNFT2 (11725882_a_at) / Fold change /veh RNFT2 (11725882_a_at) / RFU NR4A2 (11747474_a_at) / Fold change /veh NR4A2 (11747474_a_at) / RFU ABCC12 (11746883_a_at) / Fold change /veh ABCC12 (11746883_a_at) / RFU TMEM136 (11760407_x_at) / Fold change /veh TMEM136 (11760407_x_at) / RFU CLDN22 /// WWC2 (11732394_at) / Fold change /veh CLDN22 /// WWC2 (11732394_at) / RFU HLA-DPB1 (11760878_x_at) / Fold change /veh HLA-DPB1 (11760878_x_at) / RFU SPINT1 (11716480_a_at) / Fold change /veh SPINT1 (11716480_a_at) / RFU GAP43 (11754022_s_at) / Fold change /veh GAP43 (11754022_s_at) / RFU A4GNT (11735810_at) / Fold change /veh A4GNT (11735810_at) / RFU PRB3 (11715151_x_at) / Fold change /veh PRB3 (11715151_x_at) / RFU TUBB4B (11761932_at) / Fold change /veh TUBB4B (11761932_at) / RFU CAPN14 (11732068_a_at) / Fold change /veh CAPN14 (11732068_a_at) / RFU TMCC2 (11721928_a_at) / Fold change /veh TMCC2 (11721928_a_at) / RFU IRGQ (11745062_a_at) / Fold change /veh IRGQ (11745062_a_at) / RFU FAM174B (11720279_a_at) / Fold change /veh FAM174B (11720279_a_at) / RFU TMPRSS4 (11748680_a_at) / Fold change /veh TMPRSS4 (11748680_a_at) / RFU FAM212B (11763350_a_at) / Fold change /veh FAM212B (11763350_a_at) / RFU PLEKHG5 (11743358_a_at) / Fold change /veh PLEKHG5 (11743358_a_at) / RFU ZSCAN30 (11745921_a_at) / Fold change /veh ZSCAN30 (11745921_a_at) / RFU CMKLR1 (11741424_a_at) / Fold change /veh CMKLR1 (11741424_a_at) / RFU LOC101060620 /// MAPK8IP1 (11723275_at) / Fold change /veh LOC101060620 /// MAPK8IP1 (11723275_at) / RFU SPTSSB (11747773_x_at) / Fold change /veh SPTSSB (11747773_x_at) / RFU PRSS12 (11739890_at) / Fold change /veh PRSS12 (11739890_at) / RFU BIN1 (11741810_x_at) / Fold change /veh BIN1 (11741810_x_at) / RFU WNT11 (11732464_a_at) / Fold change /veh WNT11 (11732464_a_at) / RFU C10orf10 (11716521_a_at) / Fold change /veh C10orf10 (11716521_a_at) / RFU C5orf56 (11738089_at) / Fold change /veh C5orf56 (11738089_at) / RFU CYB561 (11721691_x_at) / Fold change /veh CYB561 (11721691_x_at) / RFU ANKRD19P (11752326_a_at) / Fold change /veh ANKRD19P (11752326_a_at) / RFU OR2T12 /// OR2T33 /// OR2T8 (11738714_s_at) / Fold change /veh OR2T12 /// OR2T33 /// OR2T8 (11738714_s_at) / RFU VCAN (11748164_a_at) / Fold change /veh VCAN (11748164_a_at) / RFU JSRP1 (11732532_at) / Fold change /veh JSRP1 (11732532_at) / RFU KRTAP10-11 (11738290_x_at) / Fold change /veh KRTAP10-11 (11738290_x_at) / RFU MYO3A (11730013_a_at) / Fold change /veh MYO3A (11730013_a_at) / RFU EBF3 (11725865_a_at) / Fold change /veh EBF3 (11725865_a_at) / RFU CAMK2N1 (11719241_x_at) / Fold change /veh CAMK2N1 (11719241_x_at) / RFU C5orf56 (11738088_a_at) / Fold change /veh C5orf56 (11738088_a_at) / RFU OLFML3 (11715873_a_at) / Fold change /veh OLFML3 (11715873_a_at) / RFU LOC100653217 /// NTM (11731650_a_at) / Fold change /veh LOC100653217 /// NTM (11731650_a_at) / RFU MAPK11 (11762145_a_at) / Fold change /veh MAPK11 (11762145_a_at) / RFU FIZ1 (11724087_x_at) / Fold change /veh FIZ1 (11724087_x_at) / RFU OASL (11726364_x_at) / Fold change /veh OASL (11726364_x_at) / RFU SOX15 (11748057_x_at) / Fold change /veh SOX15 (11748057_x_at) / RFU CD79A (11719716_a_at) / Fold change /veh CD79A (11719716_a_at) / RFU HIST1H1D (11736915_at) / Fold change /veh HIST1H1D (11736915_at) / RFU CASKIN2 (11723855_a_at) / Fold change /veh CASKIN2 (11723855_a_at) / RFU LOC730098 (11760151_x_at) / Fold change /veh LOC730098 (11760151_x_at) / RFU OR4N2 (11742367_at) / Fold change /veh OR4N2 (11742367_at) / RFU PRRT2 (11749266_a_at) / Fold change /veh PRRT2 (11749266_a_at) / RFU SNX32 (11753110_a_at) / Fold change /veh SNX32 (11753110_a_at) / RFU CDHR5 (11726645_a_at) / Fold change /veh CDHR5 (11726645_a_at) / RFU RCAN1 (11760418_a_at) / Fold change /veh RCAN1 (11760418_a_at) / RFU FAM167A (11723789_a_at) / Fold change /veh FAM167A (11723789_a_at) / RFU FAM26E (11764081_at) / Fold change /veh FAM26E (11764081_at) / RFU ISYNA1 (11749810_s_at) / Fold change /veh ISYNA1 (11749810_s_at) / RFU ACY1 (11761880_at) / Fold change /veh ACY1 (11761880_at) / RFU 11764098_at / Fold change /veh 11764098_at / RFU SAMD14 (11745864_x_at) / Fold change /veh SAMD14 (11745864_x_at) / RFU NPB (11741838_a_at) / Fold change /veh NPB (11741838_a_at) / RFU TMPRSS6 (11731388_a_at) / Fold change /veh TMPRSS6 (11731388_a_at) / RFU KRTAP10-2 (11738614_at) / Fold change /veh KRTAP10-2 (11738614_at) / RFU ARHGAP8 /// PRR5-ARHGAP8 (11727945_x_at) / Fold change /veh ARHGAP8 /// PRR5-ARHGAP8 (11727945_x_at) / RFU KRTAP5-7 /// NADSYN1 (11734609_at) / Fold change /veh KRTAP5-7 /// NADSYN1 (11734609_at) / RFU RASL12 (11751679_a_at) / Fold change /veh RASL12 (11751679_a_at) / RFU CDKN2B (11736163_a_at) / Fold change /veh CDKN2B (11736163_a_at) / RFU PRF1 (11729649_at) / Fold change /veh PRF1 (11729649_at) / RFU, ZNF638 /// ZNF638-IT1 / Fold change vs veh, ZNF638 /// ZNF638-IT1 / RFU, PANK3 / Fold change vs veh, PANK3 / RFU, SH3YL1 / Fold change vs veh, SH3YL1 / RFU, ZEB2 / Fold change vs veh, ZEB2 / RFU, NRIP1 / Fold change vs veh, NRIP1 / RFU, PTTG1IP / Fold change vs veh, PTTG1IP / RFU, CAPN2 / Fold change vs veh, CAPN2 / RFU, MED14 / Fold change vs veh, MED14 / RFU, SNORA58 / Fold change vs veh, SNORA58 / RFU, C1orf63 / Fold change vs veh, C1orf63 / RFU, LRRFIP1 / Fold change vs veh, LRRFIP1 / RFU, NDUFAF7 / Fold change vs veh, NDUFAF7 / RFU, SLC12A2 / Fold change vs veh, SLC12A2 / RFU, IBTK / Fold change vs veh, IBTK / RFU, ESF1 / Fold change vs veh, ESF1 / Fold change vs veh, TMEM50B / RFU, TAOK1 / Fold change vs veh, TAOK1 / RFU, ACBD3 / Fold change vs veh, ACBD3 / RFU, TMA16 / Fold change vs veh, TMA16 / RFU, RWDD3 / Fold change vs veh, RWDD3 / RFU, BCAT1 / Fold change vs veh, BCAT1 / RFU, EDEM3 / Fold change vs veh, EDEM3 / RFU, TMEM33 / Fold change vs veh, TMEM33 / RFU, WDR75 / Fold change vs veh, WDR75 / RFU, AHCTF1 / Fold change vs veh, AHCTF1 / RFU, TFRC / Fold change vs veh, TFRC / RFU, ZDHHC17 / Fold change vs veh, ZDHHC17 / RFU, NOM1 / Fold change vs veh, NOM1 / RFU, ARL8B / Fold change vs veh, ARL8B / RFU, ZBTB11 / Fold change vs veh, ZBTB11 / RFU, TAMM41 / Fold change vs veh, TAMM41 / RFU, KIAA1704 /// LOC100996395 / Fold change vs veh, KIAA1704 /// LOC100996395 / RFU, ING1 / Fold change vs veh, ING1 / RFU, TRMT61B / Fold change vs veh, TRMT61B / RFU, FUBP3 / Fold change vs veh, FUBP3 / RFU, TP53 / Fold change vs veh, TP53 / RFU, TNKS2 / Fold change vs veh, TNKS2 / RFU, ZFP14 / Fold change vs veh, ZFP14 / RFU, ACTR2 / Fold change vs veh, ACTR2 / RFU, PPP3R1 / Fold change vs veh, PPP3R1 / RFU, PIK3R1 / Fold change vs veh, PIK3R1 / RFU, HNRNPA1 / Fold change vs veh, HNRNPA1 / RFU, RNF170 / Fold change vs veh, RNF170 / RFU, ZNF28 / Fold change vs veh, ZNF28 / RFU, RNGTT / Fold change vs veh, RNGTT / RFU, OGT / Fold change vs veh, OGT / RFU, BRD1 / Fold change vs veh, BRD1 / RFU, MARS / Fold change vs veh, MARS / RFU, ZNF655 / Fold change vs veh, ZNF655 / RFU, FAHD1 / Fold change vs veh, FAHD1 / RFU, BDP1 / Fold change vs veh, BDP1 / RFU, LRRCC1 / Fold change vs veh, LRRCC1 / RFU, ARID1A / Fold change vs veh, ARID1A / RFU, ZNF146 / Fold change vs veh, ZNF146 / RFU, ZNF330 / Fold change vs veh, ZNF330 / RFU, GPN3 / Fold change vs veh, GPN3 / RFU, C9orf123 / Fold change vs veh, C9orf123 / RFU, N4BP2L2 / Fold change vs veh, N4BP2L2 / RFU, ARFIP1 / Fold change vs veh, ARFIP1 / RFU, FAM179B / Fold change vs veh, FAM179B / RFU, BCL10 / Fold change vs veh, BCL10 / RFU, UHRF1BP1L / Fold change vs veh, UHRF1BP1L / RFU, BET1 / Fold change vs veh, BET1 / RFU, CNOT2 / Fold change vs veh, CNOT2 / RFU, ZNF268 / Fold change vs veh, ZNF268 / Fold change vs veh, ZNF507 / RFU, DGCR2 / Fold change vs veh, DGCR2 / RFU, WDSUB1 / Fold change vs veh, WDSUB1 / Fold change vs veh, HSP90B1 /// MIR3652 / RFU, ADSS / Fold change vs veh, ADSS / RFU, GK / Fold change vs veh, GK / RFU, ZNF148 / Fold change vs veh, ZNF148 / RFU, TAF9 / Fold change vs veh, TAF9 / RFU, SLC1A5 / Fold change vs veh, SLC1A5 / RFU, SLMO2 / Fold change vs veh, SLMO2 / RFU, ABCC4 / Fold change vs veh, ABCC4 / RFU, LOC101060439 /// RAP1B / Fold change vs veh, LOC101060439 /// RAP1B / RFU, RFX7 / Fold change vs veh, RFX7 / RFU, GTPBP10 / Fold change vs veh, GTPBP10 / RFU, CNEP1R1 / Fold change vs veh, CNEP1R1 / RFU, BIVM-ERCC5 /// ERCC5 / Fold change vs veh, BIVM-ERCC5 /// ERCC5 / RFU, ILF3 / Fold change vs veh, ILF3 / RFU 11762660_at / Fold change /veh 11762660_at / RFU VCAN (11757783_s_at) / Fold change /veh VCAN (11757783_s_at) / RFU DDX43 (11728927_at) / Fold change /veh DDX43 (11728927_at) / RFU KRT8 (11758188_x_at) / Fold change /veh KRT8 (11758188_x_at) / RFU NKD1 (11759106_at) / Fold change /veh NKD1 (11759106_at) / RFU SRD5A1 (11742802_a_at) / Fold change /veh SRD5A1 (11742802_a_at) / RFU TPSAB1 /// TPSB2 (11721975_s_at) / Fold change /veh TPSAB1 /// TPSB2 (11721975_s_at) / RFU GSTM3 (11746129_a_at) / Fold change /veh GSTM3 (11746129_a_at) / RFU IL23R (11737362_x_at) / Fold change /veh IL23R (11737362_x_at) / RFU TMEM51 (11727254_a_at) / Fold change /veh TMEM51 (11727254_a_at) / RFU PIWIL2 (11732686_x_at) / Fold change /veh PIWIL2 (11732686_x_at) / RFU ORM1 (11744905_x_at) / Fold change /veh ORM1 (11744905_x_at) / RFU CCDC152 (11743942_at) / Fold change /veh CCDC152 (11743942_at) / RFU ECM1 (11717891_a_at) / Fold change /veh ECM1 (11717891_a_at) / RFU IL23R (11748794_a_at) / Fold change /veh IL23R (11748794_a_at) / RFU TNFAIP8L3 (11732012_x_at) / Fold change /veh TNFAIP8L3 (11732012_x_at) / RFU MBOAT4 (11741988_at) / Fold change /veh MBOAT4 (11741988_at) / RFU 11764193_at / Fold change /veh 11764193_at / RFU TMEM53 (11763286_at) / Fold change /veh TMEM53 (11763286_at) / RFU MAGEB2 (11727129_at) / Fold change /veh MAGEB2 (11727129_at) / RFU TMEM200A (11744735_a_at) / Fold change /veh TMEM200A (11744735_a_at) / RFU CCDC152 (11751479_a_at) / Fold change /veh CCDC152 (11751479_a_at) / RFU FAM211A (11726209_a_at) / Fold change /veh FAM211A (11726209_a_at) / RFU RGS16 (11746705_a_at) / Fold change /veh RGS16 (11746705_a_at) / RFU VCAN (11755009_s_at) / Fold change /veh VCAN (11755009_s_at) / RFU RHOB (11743442_s_at) / Fold change /veh RHOB (11743442_s_at) / RFU RGS16 (11720943_a_at) / Fold change /veh RGS16 (11720943_a_at) / RFU RGS16 (11720944_at) / Fold change /veh RGS16 (11720944_at) / RFU, VPS4B / Fold change vs veh, VPS4B / RFU, CREB1 / Fold change vs veh, CREB1 / RFU, DNAJC13 / Fold change vs veh, DNAJC13 / RFU, GNAQ / Fold change vs veh, GNAQ / RFU, CDK5R1 / Fold change vs veh, CDK5R1 / RFU, ZRANB3 / Fold change vs veh, ZRANB3 / RFU, CUL4A / Fold change vs veh, CUL4A / RFU, CCNY / Fold change vs veh, CCNY / RFU, UFL1 / Fold change vs veh, UFL1 / RFU, COG3 / Fold change vs veh, COG3 / RFU, DIAPH2 / Fold change vs veh, DIAPH2 / RFU, SKA2 / Fold change vs veh, SKA2 / RFU, AFF3 / Fold change vs veh, AFF3 / RFU, LMF1 / Fold change vs veh, LMF1 / RFU, IPO11 / Fold change vs veh, IPO11 / RFU, DFFB / Fold change vs veh, DFFB / RFU, FOXP1 / Fold change vs veh, FOXP1 / RFU, CARD8 / Fold change vs veh, CARD8 / RFU, STRN3 / Fold change vs veh, STRN3 / RFU, ADK / Fold change vs veh, ADK / RFU, RASSF2 / Fold change vs veh, RASSF2 / RFU, WIPF1 / Fold change vs veh, WIPF1 / RFU, LARP1B / Fold change vs veh, LARP1B / RFU, RASA1 / Fold change vs veh, RASA1 / RFU, RB1 / Fold change vs veh, RB1 / RFU, PPFIA1 / Fold change vs veh, PPFIA1 / RFU, MAT2A / Fold change vs veh, MAT2A / RFU, CCT5 / Fold change vs veh, CCT5 / RFU, WDR92 / Fold change vs veh, WDR92 / RFU, CUX1 / Fold change vs veh, CUX1 / RFU, TTC7A / Fold change vs veh, TTC7A / RFU, TMEM135 / Fold change vs veh, TMEM135 / RFU, DEPTOR / Fold change vs veh, DEPTOR / RFU, CPM / Fold change vs veh, CPM / RFU, DNAJB6 / Fold change vs veh, DNAJB6 / RFU, CACNA2D3 / Fold change vs veh, CACNA2D3 / RFU, DTX4 / Fold change vs veh, DTX4 / RFU, TFCP2 / Fold change vs veh, TFCP2 / RFU, GMCL1 /// GMCL1P1 / Fold change vs veh, GMCL1 /// GMCL1P1 / RFU, AEBP2 / Fold change vs veh, AEBP2 / RFU, SNHG1 /// SNORD22 /// SNORD25 /// SNORD26 /// SNORD27 /// SNORD28 /// SNORD29 /// SNORD31 / Fold change vs veh, SNHG1 /// SNORD22 /// SNORD25 /// SNORD26 /// SNORD27 /// SNORD28 /// SNORD29 /// SNORD31 / Fold change (Aza/veh), C12orf56 (ProbeSet 11735607_a_at) / Fold change (ACY-1035/veh), C12orf56 (ProbeSet 11735607_a_at) / Fold change (Aza/veh), FGFR1OP (ProbeSet 11751329_s_at) / Fold change (ACY-1035/veh), FGFR1OP (ProbeSet 11751329_s_at) / Fold change (Aza/veh), VPS36 (ProbeSet 11739960_a_at) / Fold change (ACY-1035/veh), VPS36 (ProbeSet 11739960_a_at) / RFU SYPL1 (11715823_x_at) / Fold change /veh SYPL1 (11715823_x_at) / RFU IGFBP7 (11715501_s_at) / Fold change /veh IGFBP7 (11715501_s_at) / RFU REEP3 (11722064_at) / Fold change /veh REEP3 (11722064_at) / RFU IGLL1 (11728026_x_at) / Fold change /veh IGLL1 (11728026_x_at): dose or concentration left out as unconfirmed
Conditions: ProbeSet 11748335_a_at; LIST B

Nc1ccc(-c2cccs2)cc1NC(=O)c1ccc2c(c1)cc(C1CC1)n2CCN1CCOCC1 [ACY-1035]
RFU, SLMO2: 145.26 RFU
